25 molecules from the SangsterLogP compilation can be followed below.

By logP is commonly meant the decadic logarithm of the partition coefficient of the neutral form, usually between octanol and water. The molecule `COc1ccc(CSC2c3cccc(O)c3C(=O)c3c(O)cccc32)cc1` had a logP of 4.83.

On to `CCOC(=O)CSC1c2cccc(O)c2C(=O)c2c(O)cccc21`, for which the lipophilicity (logP) stood at 4.45. Then `CCOC(=O)CCSC1c2cccc(O)c2C(=O)c2c(O)cccc21`, with 4.59; and `CCCCOC(=O)CSC1c2cccc(O)c2C(=O)c2c(O)cccc21`, with 4.41.

Consider `O=C(O)CSC1c2cccc(O)c2C(=O)c2c(O)cccc21`, for which the logP stood at 2.35. For `O=C(O)CCSC1c2cccc(O)c2C(=O)c2c(O)cccc21` the value was 3.

The molecule `COc1ccccc1SC1c2cccc(O)c2C(=O)c2c(O)cccc21` displayed a logP of 4.42. In turn, `Nc1ccc(SC2c3cccc(O)c3C(=O)c3c(O)cccc32)cc1` displayed a logP of 3.65. `O=C1c2c(O)cccc2C(SCC(O)CO)c2cccc(O)c21` (stereo not given) came in with a logP of 2.73. For the molecule `O=C1c2c(O)cccc2C(SCCCS)c2cccc(O)c21`, the logP turned out to be 4.33.

In the case of `O=C1c2c(O)cccc2C(Sc2ccccc2)c2cccc(O)c21`, the logP came to 4.54. For `COc1ccc(SC2c3cccc(O)c3C(=O)c3c(O)cccc32)cc1` the value was 4.51; for `O=C1c2c(O)cccc2C(Sc2ccccc2O)c2cccc(O)c21`, 3.92; for `Nc1ccccc1SC1c2cccc(O)c2C(=O)c2c(O)cccc21`, 4.05.

Regarding `O=C1c2c(O)cccc2C(SCCCc2ccccc2)c2cccc(O)c21`, the logP is 4.78. For `O=C1c2c(O)cccc2C(SCc2ccccc2)c2cccc(O)c21` the value was 4.87; for `O=C1c2c(O)cccc2C(SCCO)c2cccc(O)c21`, 3.16; for `O=C1c2c(O)cccc2C(Sc2ccc(O)cc2)c2cccc(O)c21`, 3.69. Then `COC(=O)CSC1c2cccc(O)c2C(=O)c2c(O)cccc21`, with 3.53.

In the case of `CC(SC1c2cccc(O)c2C(=O)c2c(O)cccc21)C(=O)O` (stereo not given), the lipophilicity (logP) was 2.77.

`O=C1c2c(O)cccc2C(SCCc2ccccc2)c2cccc(O)c21`: the logP came to 4.97. `COc1cccc(SC2c3cccc(O)c3C(=O)c3c(O)cccc32)c1` gave a logP of 4.5.

`CCCCOC(=O)CCSC1c2cccc(O)c2C(=O)c2c(O)cccc21` had a logP of 4.55.

Molecule `CCSC1c2cccc(O)c2C(=O)c2c(O)cccc21` showed a logP of 2.97. Regarding `CCCSC1c2cccc(O)c2C(=O)c2c(O)cccc21`, the logP came out at 4.57.
